# Data: the supplement of paper PMC10307832
# What was measured:
# Assay in all cases: relative viability (nuclei count vs DMSO), 5 days (fraction); higher = more cells survive
# NCI-H1437 = tested on: NCI-H1437
# In short: (§1)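 Cells from lung cancer lines were seeded into 1536-well plates and, one day later, dosed by pin tool. Treatments were either a single drug or a fixed dose of an anchor drug with five library-drug doses (not always all listed) in √10 steps. After 5 days, nuclei were stained in a one-step fixation (final 0.05% Triton X-100, 1% formaldehyde, 1 ug/ml Hoechst) and counted on 4× images, and relative viability is the treated-to-vehicle nuclei ratio, as the median of duplicate plates.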
# SK-MES-1 = tested on: SK-MES-1
# In short: as §1
# LXF-289 = tested on: LXF-289
# In short: as §1
# NCI-H1355 = tested on: NCI-H1355
# In short: as §1
# HCC-827 = tested on: HCC-827
# In short: as §1
# RERF-LC-KJ = tested on: RERF-LC-KJ
# In short: as §1
# NCI-H647 = tested on: NCI-H647
# In short: as §1
# NCI-H661 = tested on: NCI-H661
# In short: as §1
# NCI-H2126 = tested on: NCI-H2126
# In short: as §1
# PC-14 = tested on: PC-14
# In short: as §1
# NCI-H1993 = tested on: NCI-H1993
# In short: as §1
# EKVX = tested on: EKVX
# In short: as §1
# BEN = tested on: BEN
# In short: as §1
# NCI-H727 = tested on: NCI-H727
# In short: as §1
# NCI-H2170 = tested on: NCI-H2170
# In short: as §1
# LK-2 = tested on: LK-2
# In short: as §1
# NCI-H1944 = tested on: NCI-H1944
# In short: as §1
# NCI-H1666 = tested on: NCI-H1666
# In short: as §1
# LOU-NH91 = tested on: LOU-NH91
# In short: as §1
# LCLC-103H = tested on: LCLC-103H
# In short: as §1
# ChaGo-K-1 = tested on: ChaGo-K-1
# In short: as §1
# HOP-62 = tested on: HOP-62
# In short: as §1
# NCI-H441 = tested on: NCI-H441
# In short: as §1
smiles,measurement,setting,value
CN1CCN(CCOc2cc(OC3CCOCC3)c3c(Nc4c(Cl)ccc5c4OCO5)ncnc3c2)CC1 [Saracatinib] + Cc1cc(Nc2cc(N3CCN(C)CC3)nc(Sc3ccc(NC(=O)C4CC4)cc3)n2)n[nH]1 [Tozasertib] (partner 0.1 µM),relative viability,NCI-H1437; first compound 0.02 µM,0.431
same,relative viability,NCI-H1437; first compound 0.2 µM,0.31
same,relative viability,NCI-H1437; first compound 0.6325 µM,0.407
same,relative viability,NCI-H1437; first compound 2 µM,0.344
same,relative viability,SK-MES-1; first compound 0.02 µM,0.868
same,relative viability,SK-MES-1; first compound 0.2 µM,0.836
same,relative viability,SK-MES-1; first compound 0.6325 µM,0.872
same,relative viability,SK-MES-1; first compound 2 µM,0.666
same,relative viability,LXF-289; first compound 0.02 µM,0.205
same,relative viability,LXF-289; first compound 0.2 µM,0.183
same,relative viability,LXF-289; first compound 0.6325 µM,0.164
same,relative viability,LXF-289; first compound 2 µM,0.0819
same,relative viability,NCI-H1355; first compound 0.02 µM,0.532
same,relative viability,NCI-H1355; first compound 0.2 µM,0.317
same,relative viability,NCI-H1355; first compound 0.6325 µM,0.454
same,relative viability,NCI-H1355; first compound 2 µM,0.36
same,relative viability,HCC-827; first compound 0.02 µM,0.404
same,relative viability,HCC-827; first compound 0.2 µM,0.311
same,relative viability,HCC-827; first compound 0.6325 µM,0.171
same,relative viability,HCC-827; first compound 2 µM,0.11
same,relative viability,RERF-LC-KJ; first compound 0.02 µM,0.52
same,relative viability,RERF-LC-KJ; first compound 0.2 µM,0.465
same,relative viability,RERF-LC-KJ; first compound 0.6325 µM,0.497
same,relative viability,RERF-LC-KJ; first compound 2 µM,0.363
same,relative viability,NCI-H647; first compound 0.02 µM,0.257
same,relative viability,NCI-H647; first compound 0.2 µM,0.293
same,relative viability,NCI-H647; first compound 0.6325 µM,0.275
same,relative viability,NCI-H647; first compound 2 µM,0.231
same,relative viability,NCI-H661; first compound 0.02 µM,0.36
same,relative viability,NCI-H661; first compound 0.2 µM,0.308
same,relative viability,NCI-H661; first compound 0.6325 µM,0.342
same,relative viability,NCI-H661; first compound 2 µM,0.328
same,relative viability,NCI-H2126; first compound 0.02 µM,0.819
same,relative viability,NCI-H2126; first compound 0.2 µM,0.846
same,relative viability,NCI-H2126; first compound 0.6325 µM,0.815
same,relative viability,NCI-H2126; first compound 2 µM,0.648
same,relative viability,PC-14; first compound 0.02 µM,0.603
same,relative viability,PC-14; first compound 0.2 µM,0.514
same,relative viability,PC-14; first compound 0.6325 µM,0.475
same,relative viability,PC-14; first compound 2 µM,0.209
same,relative viability,NCI-H1993; first compound 0.02 µM,0.6
same,relative viability,NCI-H1993; first compound 0.2 µM,0.559
same,relative viability,NCI-H1993; first compound 0.6325 µM,0.569
same,relative viability,NCI-H1993; first compound 2 µM,0.576
same,relative viability,EKVX; first compound 0.02 µM,0.357
same,relative viability,EKVX; first compound 0.6325 µM,0.366
same,relative viability,EKVX; first compound 2 µM,0.254
same,relative viability,BEN; first compound 0.02 µM,0.518
same,relative viability,BEN; first compound 0.2 µM,0.477
same,relative viability,BEN; first compound 0.6325 µM,0.458
same,relative viability,BEN; first compound 2 µM,0.419
same,relative viability,NCI-H727; first compound 0.02 µM,0.618
same,relative viability,NCI-H727; first compound 0.2 µM,0.506
same,relative viability,NCI-H727; first compound 0.6325 µM,0.525
same,relative viability,NCI-H727; first compound 2 µM,0.454
same,relative viability,NCI-H2170; first compound 0.02 µM,0.736
same,relative viability,NCI-H2170; first compound 0.2 µM,0.371
same,relative viability,NCI-H2170; first compound 0.6325 µM,0.723
same,relative viability,NCI-H2170; first compound 2 µM,0.429
same,relative viability,LK-2; first compound 0.02 µM,0.205
same,relative viability,LK-2; first compound 0.2 µM,0.188
same,relative viability,LK-2; first compound 0.6325 µM,0.204
same,relative viability,LK-2; first compound 2 µM,0.193
same,relative viability,NCI-H1944; first compound 0.02 µM,0.23
same,relative viability,NCI-H1944; first compound 0.6325 µM,0.227
same,relative viability,NCI-H1944; first compound 2 µM,0.169
same,relative viability,NCI-H1666; first compound 0.02 µM,0.648
same,relative viability,NCI-H1666; first compound 0.2 µM,0.607
same,relative viability,NCI-H1666; first compound 0.6325 µM,0.66
same,relative viability,NCI-H1666; first compound 2 µM,0.625
same,relative viability,LOU-NH91; first compound 0.02 µM,0.655
same,relative viability,LOU-NH91; first compound 0.2 µM,0.449
same,relative viability,LOU-NH91; first compound 0.6325 µM,0.476
same,relative viability,LOU-NH91; first compound 2 µM,0.42
same,relative viability,LCLC-103H; first compound 0.02 µM,0.46
same,relative viability,LCLC-103H; first compound 0.2 µM,0.465
same,relative viability,LCLC-103H; first compound 0.6325 µM,0.465
same,relative viability,LCLC-103H; first compound 2 µM,0.454
same,relative viability,ChaGo-K-1; first compound 0.02 µM,0.24
same,relative viability,ChaGo-K-1; first compound 0.2 µM,0.233
same,relative viability,ChaGo-K-1; first compound 0.6325 µM,0.218
same,relative viability,ChaGo-K-1; first compound 2 µM,0.198
same,relative viability,HOP-62; first compound 0.02 µM,0.367
same,relative viability,HOP-62; first compound 0.2 µM,0.318
same,relative viability,HOP-62; first compound 0.6325 µM,0.394
same,relative viability,HOP-62; first compound 2 µM,0.384
same,relative viability,NCI-H441; first compound 0.02 µM,0.557
same,relative viability,NCI-H441; first compound 0.2 µM,0.601
same,relative viability,NCI-H441; first compound 0.6325 µM,0.728
same,relative viability,NCI-H441; first compound 2 µM,0.641
